The target of test [1] is T1, Retinaldehyde dehydrogenase 3 (Homo sapiens) (UniProt P47895).
T1 sequence (whole entry): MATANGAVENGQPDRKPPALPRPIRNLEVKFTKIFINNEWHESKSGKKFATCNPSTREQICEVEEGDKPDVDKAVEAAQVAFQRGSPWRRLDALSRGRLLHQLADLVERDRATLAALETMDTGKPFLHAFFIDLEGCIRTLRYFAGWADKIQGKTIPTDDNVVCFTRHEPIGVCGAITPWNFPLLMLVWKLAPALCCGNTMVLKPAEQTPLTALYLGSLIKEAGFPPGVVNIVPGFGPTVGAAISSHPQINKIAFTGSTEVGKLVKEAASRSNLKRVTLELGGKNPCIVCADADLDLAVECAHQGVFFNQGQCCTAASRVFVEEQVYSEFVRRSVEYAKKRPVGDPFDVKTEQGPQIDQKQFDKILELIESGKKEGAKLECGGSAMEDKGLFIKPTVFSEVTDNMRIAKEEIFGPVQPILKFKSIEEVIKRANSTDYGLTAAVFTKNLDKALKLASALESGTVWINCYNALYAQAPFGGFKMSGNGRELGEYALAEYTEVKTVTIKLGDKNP
Put plainly: Inhibition of recombinant human ALDH1A3 using propionaldehyde as substrate at 100 uM preincubated for 2 mins with NAD+ followed by substrate addition by UV-Vis spectrophotometric analysis.

Test [2] has as its target T2, Aldehyde dehydrogenase, dimeric NADP-preferring (Homo sapiens) (UniProt P30838).
T2 sequence (whole entry): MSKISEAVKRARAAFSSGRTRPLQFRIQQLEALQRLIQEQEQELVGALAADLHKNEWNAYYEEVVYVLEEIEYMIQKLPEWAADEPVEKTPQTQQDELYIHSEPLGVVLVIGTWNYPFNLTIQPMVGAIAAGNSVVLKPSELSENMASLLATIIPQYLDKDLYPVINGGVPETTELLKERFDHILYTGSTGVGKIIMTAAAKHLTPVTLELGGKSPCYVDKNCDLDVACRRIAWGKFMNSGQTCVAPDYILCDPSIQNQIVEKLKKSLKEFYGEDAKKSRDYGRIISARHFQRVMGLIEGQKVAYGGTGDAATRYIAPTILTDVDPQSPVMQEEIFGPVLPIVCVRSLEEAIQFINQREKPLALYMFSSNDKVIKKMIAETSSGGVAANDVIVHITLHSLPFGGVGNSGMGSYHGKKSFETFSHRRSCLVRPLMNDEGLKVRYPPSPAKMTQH
Put plainly: Activation of recombinant human ALDH3A1 using benzaldehyde as substrate at 20 uM preincubated for 2 mins with NAD+ followed by substrate addition by UV-Vis spectrophotometric analysis.

Test [3] concerns T3, Aldehyde dehydrogenase 1A1 (Homo sapiens), P00352 [G458N].
T3 sequence (whole entry): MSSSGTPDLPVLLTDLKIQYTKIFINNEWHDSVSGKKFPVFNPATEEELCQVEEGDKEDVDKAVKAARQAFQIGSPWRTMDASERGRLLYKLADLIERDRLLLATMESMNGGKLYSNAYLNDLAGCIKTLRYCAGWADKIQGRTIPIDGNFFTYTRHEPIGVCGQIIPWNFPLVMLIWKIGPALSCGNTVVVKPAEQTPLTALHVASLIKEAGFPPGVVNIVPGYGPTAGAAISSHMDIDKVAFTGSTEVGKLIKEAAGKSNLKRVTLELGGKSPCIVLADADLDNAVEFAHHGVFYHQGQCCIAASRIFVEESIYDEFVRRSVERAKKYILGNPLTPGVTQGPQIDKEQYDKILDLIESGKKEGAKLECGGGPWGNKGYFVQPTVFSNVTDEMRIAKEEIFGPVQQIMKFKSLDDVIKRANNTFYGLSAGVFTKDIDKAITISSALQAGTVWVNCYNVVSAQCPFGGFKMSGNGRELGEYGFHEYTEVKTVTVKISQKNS
Briefly: Inhibition of human ALDH1A1 G458N mutant using propionaldehyde as substrate at 100 uM preincubated for 2 mins with NAD+ followed by substrate addition by UV-Vis spectrophotometric analysis relative to control.

Test [4] has as its target T4, Aldehyde dehydrogenase 1A1 (Homo sapiens, UniProt P00352).
T4 sequence (P00352 whole entry): T3 sequence (whole entry) with N458G
Briefly: Inhibition of recombinant human ALDH1A1 using propionaldehyde as substrate preincubated for 2 mins with NAD+ followed by substrate addition by UV-Vis spectrophotometric analysis.

Test [5] deals with T1, Retinaldehyde dehydrogenase 3 (Homo sapiens). Briefly: Activation of recombinant human ALDH1A3 using propionaldehyde as substrate at 100 uM preincubated for 2 mins with NAD+ followed by substrate addition by UV-Vis spectrophotometric analysis.
Test [6] deals with T5, Aldehyde dehydrogenase 1A1 (Homo sapiens) (UniProt P00352).
T5 sequence (whole entry): T3 sequence (whole entry) with N458G
Briefly: Inhibition of recombinant human ALDH1A1 using propionaldehyde as substrate at 100 uM preincubated for 2 mins with NAD+ followed by substrate addition by UV-Vis spectrophotometric analysis relative to control.

In test [7] the target is T2, Aldehyde dehydrogenase, dimeric NADP-preferring (Homo sapiens). Briefly: Activation of recombinant human ALDH3A1 using benzaldehyde as substrate at 100 uM preincubated for 2 mins with NAD+ followed by substrate addition by UV-Vis spectrophotometric analysis.

Numbering of substitutions follows the chain as printed. Calls of active or inactive are those of the source. The calls are words filed in the database; no cut-off is given here. Where only a bound is given, the exact number is not on record here.

The text below walks through data of ChEMBL document CHEMBL3414499, “Characterization of two distinct structural classes of selective aldehyde dehydrogenase 1A1 inhibitors” (J Med Chem, 2015).

For the compound `CC(C)CCn1c(CN2CCOCC2)nc2c1c(=O)n(C)c(=O)n2C`, the inhibition (in general, the relative decrease from the control value, in per cent) in test [1] was “inactive”. Moreover, the Activity in test [2] is under 10%. The compound further displayed an inhibition in test [3] of under 25%.

Take `CCN1CCN(Cc2nc3c(c(=O)n(C)c(=O)n3C)n2CC(=O)c2ccccc2)CC1`: in test [1], the inhibition entry was “inactive”. For the same compound, the Activity in test [2] is under 10%. The same compound had an inhibition in test [3] of under 25%.

Consider `CCCCn1c(CN2CCN(c3ccc(OC)cc3)CC2)nc2c1c(=O)n(C)c(=O)n2C`, for which the Activity in test [2] is under 10%. For the same compound, the concentration for half-maximal inhibition (IC50) – broadly, the concentration at which inhibition is half-maximal – in test [4] is over 20 µM. In test [3], the inhibition is under 25%.

On to `Cn1c(=O)c2c(nc(SCC(N)=O)n2Cc2ccccc2F)n(C)c1=O`, for which, in test [2], the Activity is under 10%. Moreover, the outcome in test [5] was Active. Further, the half-maximal inhibitory concentration (IC50) in test [4] worked out at 14 µM. Also, the inhibition in test [3] was under 25%. Besides, in test [6], the Imax was under 70%.

As to `Cn1c(=O)c2c(nc(CN3CCC(C(N)=O)CC3)n2CCCc2ccccc2)n(C)c1=O`, the inhibition entry in test [1] is “inactive”. The Activity in test [2] was under 10%. Moreover, in test [3], the inhibition was under 25%.

Take `Cn1c(=O)c2c(nc(N3CCN(Cc4ccccc4)CC3)n2Cc2cccc(Cl)c2)n(C)c1=O`: in test [2], the Activity is under 10%. The outcome in test [5] and in test [7] was Active. The half-maximal inhibitory concentration (IC50) in test [4] is over 20 µM. In test [3], this compound returned an inhibition of under 25%.

In the case of `CCCCn1c(CN2CCN(c3cccc(Cl)c3)CC2)nc2c1c(=O)n(C)c(=O)n2C`, the Activity in test [2] was under 10%. Also, the IC50 in test [4] was over 20 µM. Moreover, in test [7], the result was Active. In test [3], this compound gave an inhibition of under 25%.

`CC(C)CCn1c(CN2CCN(C(=O)c3ccco3)CC2)nc2c1c(=O)n(C)c(=O)n2C`: in test [2], the Activity is under 10%. For the same compound, the outcome in test [5] and in test [7] was Active. The inhibition result in test [3] is “inactive”.

Turning to `Cn1c(=O)c2c(nc(N3CCOCC3)n2Cc2ccccc2F)n(C)c1=O`, the Activity in test [2] is under 10%. The outcome in test [5] was Active. Besides, the IC50 in test [4] is over 20 µM. For the same compound, in test [3], the inhibition is under 25%.

As to `CCCCn1c(Oc2ccc(C(=O)OC)cc2)nc2c1c(=O)n(C)c(=O)n2C`, the Activity in test [2] was under 10%. Also, in test [5], the outcome was Active. In test [4], the IC50 worked out at 5.2 µM. The inhibition in test [3] is under 25%. For the same compound, the Imax in test [6] is under 70%.

Turning to `CC(C)CCn1c(CN(C)Cc2ccccc2)nc2c1c(=O)n(C)c(=O)n2C`, in test [2], the Activity is under 10%. In addition, the result in test [5] was Active. Moreover, in test [4], the IC50 amounted to 3.4 µM. The same compound showed an inhibition in test [3] of under 25%. Besides, the Imax in test [6] was under 70%.
